Reference: US20250206779A1, “ANGIOTENSIN-(1-9) ANALOGUE BASED ON D AMINO ACIDS, PHARMACEUTICAL COMPOSITIONS AND USES THEREOF” (UNIVERSIDAD DE CHILE, priority 2021, published 2025)
Where a SMILES comes first, the peptide text is derived from it. [ ]: non-standard residue; d: D form.

Assays:
[1] = Stability in human serum determined by HPLC; type: in vitro ADME; settings: male, 48 h incubation, 37° C., read-out: degradation after incubation with human serum
Method: The retro-inverse peptides were dissolved in PBS to obtain a final concentration of 1 mM. From this stock, an aliquot of 50 μL was taken and diluted to 450 μL of human serum (Sigma Aldrich from human male AB plasma, USA origin, sterile-filtered) at 37° C. under agitation, to obtain an initial concentration of […] and incubated for 48 h. Aliquots of 50 μL were extracted at 0, 5, 10 min and 1, 3, 6, 24 and 48 h and added to 200 μL of methanol at 4° C. for 30 min to precipitate serum proteins. The samples were then centrifuged at 13,000 g in Hermle Cooling Centrifuge Z 326 K 311.00 V01 at 4° C. for 30 min. The supernatants (approximately 200 μL) were obtained, placed in vials, and then analyzed by HPLC. All analyzes were performed on the Perkin Elmer auto sampler flexo HPLC, using a reverse phase 4.6×100 mm column with a particle size of […] (Waters XBridge Peptide BEH C18 Column). Mobile phase A was 100% acetonitrile and phase B was TFA 0.0004% in Milli-Q water. The initial composition of eluent was 5% A and 95% B for 1 min and then a linear gradient to reach 100% A in 19 min and then return to the initial composition in 4 min, with a total run time of 25 min. The eluent flow was 0.9 mL/min and the temperature of the column was adjusted to 26° C. L measurement was performed at a UV signal of 220 nm wavelength. Where 50 μL was injected per sample. Peptides were identified based on their retention time in the respective chromatogram obtained in the Chromera-HPLC flexar program.

[2] = system: spontaneously hypertensive rats (SHR); test: β-MHC protein level in left ventricle of SHR (cardiac hypertrophy); type: in vivo, rat; settings: SHR, 1,200 ng/kg/min, 14 days, left ventricle western blot
Method: Experimental animal model. All procedures were performed in accordance with the Guide for the Care and Use of Laboratory Animals published by the U.S. National Institutes of Health (NIH Publication 85 23, 1985) and approved by our Institutional Bioethics Committee. The animals were housed under the continuous professional monitoring of the Medical Veterinary staff in the animal facility of the Pontificia Universidad Católica de Chile, under the following conditions: 12-h light-dark cycle; 21° C. ambient temperature; 50% humidity; adequate ventilation; noise-free environment; and food and water ad libitum. Male spontaneously hypertensive rats (SHR, age 12 weeks) and normotensive Wistar Kyoto rats (WKY, 12 weeks age) were used. […] Systolic blood pressure (SBP), diastolic blood pressure (DBP) and body weight (BW) were measured at the end of the treatment period and the animals were then sacrificed.
Measurement of β-MHC protein level to assess cardiac hypertrophy. β-MHC protein levels were determined by Western blotting. […] Digital images obtained from the photographic films were analyzed by densitometry using Image J software (NIH, USA). […]

[3] = system: adult rat cardiac fibroblasts; test: Cardiac fibroblast proliferation, cell count in Neubauer chamber; type: cell-based; settings: DMEM F-12 5% FBS, 24 h, trypan blue cell count
Method: Male Sprague-Dawley rats (250-300 g) were anesthetized with ketamine-xylazine (66 and 1.6 mg/kg i.p., respectively). Adult rat cardiac fibroblasts were isolated by retrograde aortic perfusion. Briefly, hearts were digested with collagenase type B solution for 1 h, and cells were centrifuged at 500 rpm for 2 min. The supernatant, mainly adult rat cardiac fibroblasts, was centrifuged at 1000 rpm for 10 min, resuspended in Dulbecco's Modified Eagle Medium: Nutrient Mixture F-12 (DMEM F-12) plus 15% fetal bovine serum (FBS) and then seeded in nontreated culture dishes during 3 h. Cells were washed with phosphate buffered saline to eliminate debris and nonadherent cells. Adult rat cardiac fibroblasts were used at passage one and seeded on 60 mm cell culture dishes in DMEM F-12 plus 10% FBS and incubated at […] for 3 h. To synchronize cells, they were washed and incubated in DMEM F-12 (without serum, 0% FBS) for 24 h before experimentation. Cell proliferation was determined in cardiac fibroblasts incubated for 24 h with and without retro-inverse angiotensin-(1-9) in DMEM F-12 5% FBS. Cells were trypsinized and cell number was determined using trypan blue method in a Neubauer chamber.

For `CC[C@@H](C)[C@@H](NC(=O)[C@@H](Cc1c[nH]cn1)NC(=O)[C@H]1CCCN1C(=O)[C@@H](Cc1ccccc1)NC(=O)[C@H](N)Cc1c[nH]cn1)C(=O)N[C@H](Cc1ccc(O)cc1)C(=O)N[C@@H](C(=O)N[C@H](CCCNC(=N)N)C(=O)N[C@H](CC(=O)O)C(=O)O)C(C)C` [retro-inverse angiotensin-(1-9), NH2-^DH^DF^DP^DH^DI^DY^DV^DR^DD-COOH] (H-[dH][dF][dP][dH][dI][dY][dV][dR][dD]-OH), the metabolised at 48 h, 20 μM [1] was less than 20%, the “increase in β-MHC induced by hypertension” value [2] was “reversed the increase” and the fibroblast proliferation [3] was “inhibited fibroblast proliferation”.
